Test results as given in PubChem BioAssay (NCI).
Values joined by “and” are separate entries in the source; they are usually repeats but may differ in a detail not shown here. Identical values can stand only once.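 Growth conditions: 96-well plates. Treatment: test compound, 48 hours, 5 concentrations. Analysis: linear interpolation between bracketing concentrations; unreached endpoints set to highest concentration. GI50 is the concentration that inhibits growth by half. TGI denotes the concentration required for complete inhibition of growth.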

What was measured:
Experiment in all cases: growth of human tumour cells (NCI), 48 h
T-47D breast = system: T-47D breast
OVCAR-5 ovarian = system: OVCAR-5 ovarian
NCI-H522 lung = system: NCI-H522 lung
U251 CNS = system: U251 CNS
HL-60(TB) leukemia = system: HL-60(TB) leukemia
CAKI-1 renal = system: CAKI-1 renal
UACC-257 melanoma = system: UACC-257 melanoma
EKVX NSCLC = system: EKVX NSCLC
ACHN renal = system: ACHN renal
SK-MEL-5 melanoma = system: SK-MEL-5 melanoma

COc1ccc(OC/C(N=Cc2cccnc2)=N/NC(=O)c2ccncc2)cc1
TGI (T-47D breast): > 100 µM | TGI (OVCAR-5 ovarian): > 100 µM | TGI (NCI-H522 lung): 34 µM | TGI (U251 CNS): > 100 µM | TGI (HL-60(TB) leukemia): > 100 µM | TGI (CAKI-1 renal): > 100 µM | TGI (UACC-257 melanoma): > 100 µM | TGI (EKVX NSCLC): > 100 µM | TGI (ACHN renal): > 100 µM

O=C(CCCN1CCC(Nc2ccc(F)cc2)(c2nnnn2C2CCCCC2)CC1)c1ccc(F)cc1
TGI (OVCAR-5 ovarian): 29.7 µM | TGI (NCI-H522 lung): 29.8 µM | TGI (U251 CNS): 29.2 µM | TGI (SK-MEL-5 melanoma): 42 µM | TGI (HL-60(TB) leukemia): 40.4 µM | TGI (UACC-257 melanoma): 57.3 µM | TGI (EKVX NSCLC): 35.4 µM | TGI (ACHN renal): 28.6 µM

COc1cc(/C=C2\CCCC3=C2N=C2SC=NN2C3c2cc(OC)c(OC)c(OC)c2)cc(OC)c1OC (stereo not given)
GI50 (T-47D breast): 3.9 µM | TGI (T-47D breast): > 100 µM | GI50 (NCI-H522 lung): 2720 nM | TGI (NCI-H522 lung): 8.51 µM | GI50 (HL-60(TB) leukemia): 2930 nM | TGI (HL-60(TB) leukemia): 9.49 µM | GI50 (CAKI-1 renal): 3.43 µM | TGI (CAKI-1 renal): > 100 µM | GI50 (UACC-257 melanoma): 2.64 µM | TGI (UACC-257 melanoma): 26.1 µM | GI50 (ACHN renal): 1.88 µM | TGI (ACHN renal): 3.74 µM

CCOC(=O)C(/C=N/C(N)=S)=C(/O)c1ccccc1
TGI (T-47D breast): > 100 µM | TGI (OVCAR-5 ovarian): > 100 µM | TGI (U251 CNS): > 100 µM | TGI (SK-MEL-5 melanoma): > 100 µM | TGI (HL-60(TB) leukemia): > 100 µM | TGI (CAKI-1 renal): > 100 µM | TGI (UACC-257 melanoma): > 100 µM | TGI (EKVX NSCLC): > 100 µM | TGI (ACHN renal): > 100 µM

Cc1ccc(S(=O)(=O)N/N=C2/C3CC4CCC2C4C3)cc1 (stereo not given)
TGI (T-47D breast): > 100 µM | TGI (OVCAR-5 ovarian): > 100 µM | TGI (NCI-H522 lung): > 100 µM | TGI (U251 CNS): > 100 µM | TGI (SK-MEL-5 melanoma): > 100 µM | TGI (CAKI-1 renal): > 100 µM | TGI (UACC-257 melanoma): > 100 µM | TGI (EKVX NSCLC): > 100 µM | TGI (ACHN renal): > 100 µM

O=CC1C(=O)Nc2nc3ccccc3n2C1c1ccccc1 (stereo not given)
TGI (OVCAR-5 ovarian): 95.7 µM | TGI (NCI-H522 lung): 26.3 µM | TGI (U251 CNS): 29.1 µM | TGI (SK-MEL-5 melanoma): 28.7 µM | TGI (HL-60(TB) leukemia): > 100 µM | TGI (CAKI-1 renal): 48.5 µM | TGI (UACC-257 melanoma): 33.3 µM | TGI (EKVX NSCLC): 82 µM | TGI (ACHN renal): 42.7 µM

Cc1cc(NS(=O)(=O)c2ccc(N=Nc3c(Nc4ccccc4)nn(-c4ccc(S(=O)(=O)Nc5ccncn5)cc4)c3C)cc2)no1
TGI (T-47D breast): > 100 µM | TGI (OVCAR-5 ovarian): > 100 µM | TGI (NCI-H522 lung): > 100 µM | TGI (U251 CNS): > 100 µM | TGI (SK-MEL-5 melanoma): > 100 µM | TGI (CAKI-1 renal): > 100 µM | TGI (UACC-257 melanoma): > 100 µM | TGI (EKVX NSCLC): > 100 µM | TGI (ACHN renal): > 100 µM

COC(=O)Cc1c(-c2c(CC(=O)OC)c3ccccc3n2C2OC(COC3OC(COC(C)=O)C(OC(C)=O)C(OC(C)=O)C3OC(C)=O)C(O)C(O)C2O)[nH]c2ccccc12 (stereo not given)
TGI (T-47D breast): > 100 µM | TGI (OVCAR-5 ovarian): > 100 µM | TGI (U251 CNS): > 100 µM | TGI (SK-MEL-5 melanoma): > 100 µM | TGI (HL-60(TB) leukemia): > 100 µM | TGI (CAKI-1 renal): > 100 µM | TGI (UACC-257 melanoma): > 100 µM | TGI (EKVX NSCLC): > 100 µM | TGI (ACHN renal): > 100 µM

COc1ccc([C@H]2C=C(c3cc(F)c(Cl)cc3Cl)N=c3s/c(=C\c4ccc(-c5ccc(Cl)cc5Cl)o4)c(=O)n32)cc1
TGI (T-47D breast): > 100 µM | TGI (OVCAR-5 ovarian): > 100 µM | TGI (NCI-H522 lung): > 100 µM | TGI (U251 CNS): > 100 µM | TGI (SK-MEL-5 melanoma): > 100 µM | TGI (CAKI-1 renal): > 100 µM | TGI (UACC-257 melanoma): > 100 µM | TGI (ACHN renal): > 100 µM

CSc1nc(NC2OC(CO)C(O)C(O)C2O)c(N)c(=O)[nH]1 (stereo not given)
TGI (OVCAR-5 ovarian): > 100 µM | TGI (NCI-H522 lung): > 100 µM | TGI (U251 CNS): > 100 µM | TGI (SK-MEL-5 melanoma): > 100 µM | TGI (HL-60(TB) leukemia): > 100 µM | TGI (UACC-257 melanoma): > 100 µM | TGI (EKVX NSCLC): > 100 µM

O=C(O)Cc1ccc(-n2nnc3c(=O)[nH][nH]c(=O)c32)cc1
TGI (OVCAR-5 ovarian): > 100 µM | TGI (U251 CNS): > 100 µM | TGI (SK-MEL-5 melanoma): > 100 µM | TGI (HL-60(TB) leukemia): > 100 µM | TGI (CAKI-1 renal): > 100 µM | TGI (UACC-257 melanoma): > 100 µM | TGI (EKVX NSCLC): > 100 µM | TGI (ACHN renal): > 100 µM

COC(=O)C(Cc1cc(OC)c(OC)c(OC)c1)(NC(=O)c1ccccc1)P(=O)(OC)OC (stereo not given)
TGI (OVCAR-5 ovarian): > 100 µM | TGI (NCI-H522 lung): > 100 µM | TGI (U251 CNS): > 100 µM | TGI (SK-MEL-5 melanoma): > 100 µM | TGI (HL-60(TB) leukemia): > 100 µM | TGI (CAKI-1 renal): > 100 µM | TGI (UACC-257 melanoma): > 100 µM | TGI (EKVX NSCLC): > 100 µM | TGI (ACHN renal): > 100 µM

COc1ccc(Nc2cnc3cc(N)ccc3n2)cc1OC
TGI (OVCAR-5 ovarian): > 100 µM | TGI (U251 CNS): > 100 µM | TGI (SK-MEL-5 melanoma): > 100 µM | TGI (HL-60(TB) leukemia): 62.1 µM | TGI (UACC-257 melanoma): > 100 µM | TGI (EKVX NSCLC): > 100 µM | TGI (ACHN renal): > 100 µM

C[C@H](OC(=O)/C=C/c1ccc(O)c(O)c1)[C@H](C)OC(=O)/C=C/c1ccc(O)c(O)c1
TGI (T-47D breast): > 100 µM | TGI (OVCAR-5 ovarian): 33.1 µM | TGI (NCI-H522 lung): 35.1 µM | TGI (U251 CNS): > 100 µM | TGI (SK-MEL-5 melanoma): 21.5 µM | TGI (CAKI-1 renal): > 100 µM | TGI (UACC-257 melanoma): 29.7 µM | TGI (EKVX NSCLC): 33 µM | TGI (ACHN renal): 30.5 µM

COc1ccc(-c2nc3ccccc3c(=O)[nH]2)cc1OC
TGI (T-47D breast): > 100 µM | TGI (OVCAR-5 ovarian): > 100 µM | TGI (U251 CNS): 80.5 µM | TGI (SK-MEL-5 melanoma): > 100 µM | TGI (CAKI-1 renal): > 100 µM | TGI (UACC-257 melanoma): > 100 µM | TGI (EKVX NSCLC): 53.2 µM

COc1cc(CNC(=O)CCCCCCCCCCSC#N)ccc1O
TGI (T-47D breast): 48.1 µM | TGI (OVCAR-5 ovarian): 85.8 µM | TGI (NCI-H522 lung): 27.8 µM | TGI (U251 CNS): 34.1 µM | TGI (SK-MEL-5 melanoma): 19.4 µM | TGI (HL-60(TB) leukemia): 28.9 µM | TGI (CAKI-1 renal): 36.8 µM | TGI (UACC-257 melanoma): 41.1 µM | TGI (EKVX NSCLC): 54.6 µM

COc1ccccc1N1C(=O)/C(=C\c2ccccc2)SC1c1cc(OC)c(OC)c(OC)c1 (stereo not given)
TGI (T-47D breast): 37.8 µM | TGI (OVCAR-5 ovarian): > 100 µM | TGI (NCI-H522 lung): 74.3 µM | TGI (U251 CNS): 74.2 µM | TGI (SK-MEL-5 melanoma): > 100 µM | TGI (CAKI-1 renal): > 100 µM | TGI (UACC-257 melanoma): > 100 µM | TGI (EKVX NSCLC): > 100 µM | TGI (ACHN renal): > 100 µM

O=c1ccc2c(Cl)sc(Cl)c2[nH]1
TGI (T-47D breast): > 100 µM | TGI (OVCAR-5 ovarian): > 100 µM | TGI (NCI-H522 lung): > 100 µM | TGI (U251 CNS): > 100 µM | TGI (CAKI-1 renal): > 100 µM | TGI (UACC-257 melanoma): > 100 µM | TGI (EKVX NSCLC): > 100 µM | TGI (ACHN renal): > 100 µM

CC(=O)Nc1ccc2cc3c(nc2n1)c1cccnc1n3S(=O)(=O)c1ccccc1
TGI (OVCAR-5 ovarian): > 100 µM | TGI (NCI-H522 lung): > 100 µM | TGI (U251 CNS): > 100 µM | TGI (SK-MEL-5 melanoma): > 100 µM | TGI (HL-60(TB) leukemia): > 100 µM | TGI (CAKI-1 renal): > 100 µM | TGI (UACC-257 melanoma): > 100 µM | TGI (EKVX NSCLC): > 100 µM | TGI (ACHN renal): > 100 µM

COC(=O)/C=C/c1cc(OC)c2c(c1)C(C(=O)OC)C(c1ccc(O)c(OC)c1)O2 (stereo not given)
TGI (T-47D breast): > 100 µM and 31.9 µM and > 57.6 µM | GI50 (OVCAR-5 ovarian): 48.8 µM and 55.2 µM and 22.3 µM | TGI (OVCAR-5 ovarian): > 100 µM | GI50 (NCI-H522 lung): 3960 nM and 3170 nM and 1920 nM | TGI (NCI-H522 lung): > 27.5 µM and 25.5 µM and 8.16 µM | TGI (U251 CNS): > 45 µM and > 54.2 µM and 48.3 µM | GI50 (HL-60(TB) leukemia): 1140 nM and 1810 nM and 325 nM | GI50 (CAKI-1 renal): 2.63 µM and 2.04 µM and 12.2 µM | TGI (CAKI-1 renal): 14.3 µM and 11.9 µM and > 74 µM | GI50 (UACC-257 melanoma): > 25.9 µM and 6.49 µM | TGI (UACC-257 melanoma): > 100 µM and 63.2 µM | GI50 (EKVX NSCLC): > 29.4 µM and 18.5 µM and 3.45 µM | TGI (EKVX NSCLC): > 100 µM and 57.6 µM | GI50 (ACHN renal): > 26.2 µM and 15.9 µM and 7.59 µM | TGI (ACHN renal): > 100 µM

Nc1nc(=O)n(C2CC(O)C(CO)O2)c2nc(-c3ccc(-c4ccccc4)cc3)cnc12 (stereo not given)
TGI (T-47D breast): 57.4 µM | TGI (OVCAR-5 ovarian): > 100 µM | TGI (NCI-H522 lung): 48.9 µM | TGI (U251 CNS): 42.6 µM | TGI (SK-MEL-5 melanoma): > 100 µM | TGI (CAKI-1 renal): > 100 µM | TGI (UACC-257 melanoma): > 100 µM | TGI (EKVX NSCLC): > 100 µM | TGI (ACHN renal): > 100 µM

O=[N+]([O-])c1cnccc1-n1nnc2ccccc21
TGI (OVCAR-5 ovarian): 73.4 µM | TGI (NCI-H522 lung): 38.5 µM | TGI (U251 CNS): > 81.8 µM | TGI (SK-MEL-5 melanoma): 33.3 µM | TGI (HL-60(TB) leukemia): > 54.7 µM | TGI (UACC-257 melanoma): 51.4 µM | TGI (EKVX NSCLC): 90.6 µM
